Experimental data as given in patent US20240398737A1, “FUNCTIONALIZED LONG-CHAIN HYDROCARBON MONO- AND DI-CARBOXYLIC ACIDS AND DERIVATIVES THEREOF, AND THEIR USE FOR THE PREVENTION OR TREATMENT OF DISEASE” (Espervita Therapeutics, Inc., priority 2021, published 2024).
“Also recorded” adds a separate entry of the source. Where two headings read alike, the source gives them in different places.

Experiments:
[1] = Toxicokinetics in female rats (4-day oral gavage study, Day 1); assay type: in vivo; settings: female rat plasma; for Dose proportionality of the increases in mean Cmax and AUC0-24: 100 to 300 mg/kg/day; for Cmax / Tmax / AUC(0-t): Wistar Han (RccHan:WIST); for Cmax / Tmax / AUC(0-t) / AUC0-24 (h*ng/mL): Day 1; for AUC(0-t): read-out: AUC0-24
Method: Dosing Solutions. The dosing solutions of Compound I-1 or Compound I-32 were prepared as follows: a 60-mg/mL stock solution was prepared for Compound I-1 or Compound I-32 by dissolving Compound I-1 or Compound I-32 in DI water. Two molar equivalents of NaOH was added for every 1 mole of Compound I-1 or Compound I-32 (1.1 μL of 5N NaOH was added for every mg of Compound I-32 or Compound I-1). The pH of the stock solution for Compound I-1 or Compound I-32 was adjusted to achieve a final pH of 8.2 to 8.6. The resultant stock formulations were further diluted with vehicle to achieve the 30 mg/mL concentration. The 30-mg/mL formulations were diluted with control article to achieve the 10-mg/mL concentration. All dilution calculations were based on the nominal concentration of the stock solution. Formulations of Compound I-1 or Compound I-32 were prepared on the day of dosing were stored at room temperature (15 to 30° C.) and used within 8 hours of preparation completion. The control was 1.5% (w/v) carboxymethyl cellulose+0.2% (v/v) Tween 20 in DI water for as Group 1 formulations. The vehicle used for Compound I-1 and Compound I-32 formulations was 3% (w/v) carboxymethyl cellulose+0.4% (v/v) Tween 20 in DI water.
Bioanalytical and Toxicokinetic Analyses. Blood samples (approximately 0.3 mL) were collected from nonfasted toxicokinetic animals via a jugular vein on Day 1 of the dosing phase, as indicated in the following table. Samples were collected predose and approximately 1, 2, 4, and 24 hours postdose.
Blood was collected into tubes containing potassium (K2) EDTA as the anticoagulant. Samples were maintained on chilled cryoracks and were centrifuged within 1 hour of collection. Plasma was harvested into two approximately equal aliquots and stored on dry ice until placed in a freezer, set to maintain −60 to −80° C., until analyzed. Plasma samples were analyzed for Compound I-1 and Compound I-32 content using a generic Tier 1 qualified liquid chromatography-tandem mass spectrometry (LC-MS/MS) method.
In-Life Phase. Animals were dosed once daily for up to 4 days via oral gavage at a volume of 10 mL/kg. Animals in Group 2 and 3 were administered Compound I-1. Animals in Group 4 and 5 were administered Compound I-32. The control article for Group 1 was 1.5% (w/v) carboxymethyl cellulose+0.2% (v/v) Tween 20 in deionized (DI) water. The vehicle used to prepare Compound I-1 and Compound I-32 formulations was 3% (w/v) carboxymethyl cellulose+0.4% (v/v) Tween 20 in DI water.

NEK2 = NEK2 (Homo sapiens (Human), UniProt P51955); assay: Wild type kinase screen: NEK2; assay type: biochemical; settings: compound at 10 μM, 10 μM ATP, Data 1 and Data 2 duplicates
GSK3b = GSK3b (Homo sapiens (Human), UniProt P49841); assay: Wild type kinase screen: GSK3b; assay type: biochemical; settings: compound at 10 μM, 10 μM ATP, Data 1 and Data 2 duplicates
[2] = tested on: UUO-induced renal fibrosis; assay: Murine unilateral ureter obstruction (UUO) renal fibrosis model; assay type: in vivo, mouse; settings: 100 mg/kg oral gavage daily for 9 days after UUO, mice
Method: Animal studies were carried out in accordance with the principles of laboratory animal care of the Canadian Council on Animal Care guidelines. Male C57BL/6 mice were obtained from Charles Rivers Laboratories. FIG. 13A summarizes the timeline for this experiment. UUO model was created as follows: male C57BL6J mice (8 weeks old from Charles River Laboratories) were anesthetized with 4% isofluorane and an anesthetic plane was maintained throughout surgery at 1.5-2% isofluorane with 1 L/min oxygen. A 0.5 cm incision was made longitudinally on the left flank. The left ureter and lower pole of the kidney was exposed, and the ureter was ligated with a 6′0 silk suture in close proximity to the renal pelvis. A sham operation control group was created by surgical exposure of the left ureter and lower pole of the kidney followed by closure of the incision. Subcutaneous fluids were given (1.5 ml 0.9% NaCl) and the incision was closed with 4′0 silk sutures followed by staples for the skin. Starting the day of model creation, the animals were given a daily dose of either vehicle alone (sham surgery and UUO control, 1.5% CMC and 0.2% Tween-20) or vehicle containing Compound I-32 or Compound I-1 (at 100 mg/kg) by oral gavage for 9 days following surgery. At the end of the treatment period mice were anesthetized prior to euthanasia by bilateral thoraco-abdominal incision. Blood was collected by cardiac puncture, followed by kidney perfusion with cold saline through left ventricular cannulation. The left kidney was removed, a sample taken and fixed in formalin for histological analysis. Trichrome staining was done on formalin-fixed sections (4 μm) following deparaffinization according to manufacturer's instructions (Sigma HT15-1KT). Images were quantified by measuring the percentage of positive area using Image J on micrographs captured at x200 magnification using the BX41 Olympus microscope. Statistical analysis was performed using GraphPad Prism 8. A one-way ANOVA was used to determine significance. A p-value of less than or equal to 0.05 was used as the criterion of significance. This route was selected because it simulates oral administration to mammalian, including human, subjects and ensures that the correct dose of compound is ingested by each animal.
Immunohistochemistry. Formalin-fixed kidneys were embedded in paraffin, then sectioned at 4 μm. After deparaffinization, they were stained with Masson's trichrome to assess collagen content (Sigma Aldrich, catalogue no. HT15-1T), picrosirius red (PSR) to more specifically assess pathogenic collagens I and III (Polysciences, Inc., catalogue no. 24901-500), αSMA as a marker of activated, profibrotic fibroblasts (PIERCE, catalogue no. MA1-06110; 30 min steaming for antigen retrieval, antibody used at 1:5000 for 2 h at room temperature), CD3 to identify T-lymphocytes (Dako, catalogue no. A0452; 30 min steaming for antigen retrieval, antibody used at 1:500 overnight at 4° C.) and F4/80 to identify macrophages (done by the McMaster Histology Facility). Slides were counterstained with hematoxylin, dehydrated twice with 90% ethanol, cleared twice with xylene, coverslipped with mounting media, and then left to dry overnight before imaging. Masson's trichrome, αSMA, CD3 and F4/80 were imaged under transmitted light and quantified using ImageJ. The Olympus IX81 fluorescence microscope driven by Metamorph was used to image and quantify PSR staining. Images were quantified by measuring the percentage of positive area. All micrographs were captured at x20 magnification.

BMX/ETK = BMX/ETK (Homo sapiens (Human), UniProt P51813); assay: Wild type kinase screen: BMX/ETK; assay type: biochemical; settings: compound at 10 μM, 10 μM ATP, Data 1 and Data 2 duplicates
MELK = MELK (Homo sapiens (Human), UniProt Q14680); assay: Wild type kinase screen: MELK; assay type: biochemical; settings: compound at 10 μM, 10 μM ATP, Data 1 and Data 2 duplicates
TNIK = TNIK (Homo sapiens (Human), UniProt Q9UKE5); assay: Wild type kinase screen: TNIK; assay type: biochemical; settings: compound at 10 μM, 10 μM ATP, Data 1 and Data 2 duplicates
TNIK, sequence (Q9UKE5 whole entry, species assumed): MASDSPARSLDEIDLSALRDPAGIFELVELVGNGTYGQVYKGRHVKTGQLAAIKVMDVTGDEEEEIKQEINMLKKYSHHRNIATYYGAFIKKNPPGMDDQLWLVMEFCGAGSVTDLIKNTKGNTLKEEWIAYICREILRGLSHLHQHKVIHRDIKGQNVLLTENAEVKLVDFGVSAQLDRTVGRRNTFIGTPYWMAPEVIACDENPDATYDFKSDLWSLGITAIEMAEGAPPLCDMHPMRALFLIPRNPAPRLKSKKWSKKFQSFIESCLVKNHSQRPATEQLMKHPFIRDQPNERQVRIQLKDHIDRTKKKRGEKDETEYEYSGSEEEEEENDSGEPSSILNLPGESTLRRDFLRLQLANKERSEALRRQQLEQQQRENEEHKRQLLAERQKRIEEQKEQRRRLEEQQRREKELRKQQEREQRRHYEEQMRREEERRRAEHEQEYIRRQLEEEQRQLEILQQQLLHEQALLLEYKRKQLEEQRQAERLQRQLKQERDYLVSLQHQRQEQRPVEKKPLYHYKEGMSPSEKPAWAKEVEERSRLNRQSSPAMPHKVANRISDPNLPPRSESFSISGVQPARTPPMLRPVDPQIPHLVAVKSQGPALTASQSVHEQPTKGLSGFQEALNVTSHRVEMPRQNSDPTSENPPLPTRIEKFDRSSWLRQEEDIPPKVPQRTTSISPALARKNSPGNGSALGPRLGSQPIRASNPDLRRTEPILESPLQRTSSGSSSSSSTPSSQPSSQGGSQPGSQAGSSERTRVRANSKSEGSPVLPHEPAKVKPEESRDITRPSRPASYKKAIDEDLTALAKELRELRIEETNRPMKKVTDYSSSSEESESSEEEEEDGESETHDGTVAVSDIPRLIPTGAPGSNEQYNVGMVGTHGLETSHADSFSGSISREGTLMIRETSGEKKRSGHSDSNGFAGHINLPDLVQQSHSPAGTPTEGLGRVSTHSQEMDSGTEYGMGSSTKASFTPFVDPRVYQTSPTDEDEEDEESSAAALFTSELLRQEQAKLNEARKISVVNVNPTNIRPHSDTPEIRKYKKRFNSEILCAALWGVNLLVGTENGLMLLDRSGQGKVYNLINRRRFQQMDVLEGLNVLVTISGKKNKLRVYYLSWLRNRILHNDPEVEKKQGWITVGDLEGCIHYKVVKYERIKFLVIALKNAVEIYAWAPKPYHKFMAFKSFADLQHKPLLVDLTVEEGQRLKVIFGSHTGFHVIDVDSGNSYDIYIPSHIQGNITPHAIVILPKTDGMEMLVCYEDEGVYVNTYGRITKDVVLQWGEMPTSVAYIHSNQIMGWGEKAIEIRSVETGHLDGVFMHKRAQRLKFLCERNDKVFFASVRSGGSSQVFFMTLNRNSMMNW

BMX/ETK, sequence (P51813 whole entry): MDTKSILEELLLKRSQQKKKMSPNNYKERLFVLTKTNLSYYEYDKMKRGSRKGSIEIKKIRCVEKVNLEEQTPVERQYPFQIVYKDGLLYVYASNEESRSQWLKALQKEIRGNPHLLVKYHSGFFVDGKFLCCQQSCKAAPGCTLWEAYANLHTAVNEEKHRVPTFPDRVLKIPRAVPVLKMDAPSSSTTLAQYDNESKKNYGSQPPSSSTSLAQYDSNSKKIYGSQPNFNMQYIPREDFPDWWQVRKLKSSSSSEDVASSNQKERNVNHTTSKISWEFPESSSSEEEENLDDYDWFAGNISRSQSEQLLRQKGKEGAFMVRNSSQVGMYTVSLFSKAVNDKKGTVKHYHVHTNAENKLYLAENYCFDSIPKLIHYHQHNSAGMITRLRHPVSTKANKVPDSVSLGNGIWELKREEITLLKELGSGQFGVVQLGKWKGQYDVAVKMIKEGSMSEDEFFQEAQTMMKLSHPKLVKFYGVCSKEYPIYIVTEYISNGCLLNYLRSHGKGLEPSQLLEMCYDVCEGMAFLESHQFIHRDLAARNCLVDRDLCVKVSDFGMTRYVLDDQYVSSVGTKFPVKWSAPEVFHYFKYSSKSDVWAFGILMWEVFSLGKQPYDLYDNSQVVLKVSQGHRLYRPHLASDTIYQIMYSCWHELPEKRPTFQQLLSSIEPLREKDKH
MELK, sequence (Q14680 whole entry, species assumed): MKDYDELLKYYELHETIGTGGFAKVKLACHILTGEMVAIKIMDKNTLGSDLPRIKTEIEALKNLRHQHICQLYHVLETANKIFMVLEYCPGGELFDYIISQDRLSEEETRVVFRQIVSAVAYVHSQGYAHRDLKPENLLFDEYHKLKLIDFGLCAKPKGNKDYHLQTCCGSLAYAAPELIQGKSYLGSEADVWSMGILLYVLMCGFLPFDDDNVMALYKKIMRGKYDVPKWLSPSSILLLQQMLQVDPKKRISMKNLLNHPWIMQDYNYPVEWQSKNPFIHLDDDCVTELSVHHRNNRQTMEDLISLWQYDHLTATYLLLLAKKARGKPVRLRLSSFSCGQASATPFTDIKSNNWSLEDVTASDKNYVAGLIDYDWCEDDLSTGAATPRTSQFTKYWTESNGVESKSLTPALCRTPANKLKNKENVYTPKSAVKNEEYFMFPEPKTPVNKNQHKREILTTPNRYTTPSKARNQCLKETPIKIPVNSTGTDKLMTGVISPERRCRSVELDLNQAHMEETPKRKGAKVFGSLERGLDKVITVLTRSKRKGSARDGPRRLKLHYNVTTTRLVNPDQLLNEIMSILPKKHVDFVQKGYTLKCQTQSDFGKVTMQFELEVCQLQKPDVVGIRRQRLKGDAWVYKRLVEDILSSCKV
GSK3b, sequence (P49841 whole entry, species assumed): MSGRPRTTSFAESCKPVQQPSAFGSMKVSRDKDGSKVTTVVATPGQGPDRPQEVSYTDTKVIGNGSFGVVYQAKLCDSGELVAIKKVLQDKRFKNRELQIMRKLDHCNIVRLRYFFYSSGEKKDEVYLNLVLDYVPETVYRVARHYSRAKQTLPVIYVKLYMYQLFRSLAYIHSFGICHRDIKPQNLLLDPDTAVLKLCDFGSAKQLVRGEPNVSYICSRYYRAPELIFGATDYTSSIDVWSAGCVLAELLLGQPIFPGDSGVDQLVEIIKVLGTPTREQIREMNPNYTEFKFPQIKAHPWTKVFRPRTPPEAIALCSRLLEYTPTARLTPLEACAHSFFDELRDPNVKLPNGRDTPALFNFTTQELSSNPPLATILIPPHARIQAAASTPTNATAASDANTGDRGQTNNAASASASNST
NEK2, sequence (P51955 whole entry, species assumed): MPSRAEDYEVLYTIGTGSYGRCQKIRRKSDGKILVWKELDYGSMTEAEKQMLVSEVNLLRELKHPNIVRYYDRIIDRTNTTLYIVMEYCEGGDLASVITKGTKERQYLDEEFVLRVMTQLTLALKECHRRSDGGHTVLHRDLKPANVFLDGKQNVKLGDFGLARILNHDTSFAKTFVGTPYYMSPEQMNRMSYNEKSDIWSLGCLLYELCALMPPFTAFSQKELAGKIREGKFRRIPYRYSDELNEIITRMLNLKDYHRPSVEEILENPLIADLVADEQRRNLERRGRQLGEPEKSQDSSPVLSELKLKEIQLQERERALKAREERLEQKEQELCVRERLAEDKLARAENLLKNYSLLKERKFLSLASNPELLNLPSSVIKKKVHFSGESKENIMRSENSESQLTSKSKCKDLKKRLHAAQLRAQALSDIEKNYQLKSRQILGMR

| SMILES | Dose proportionality of the increases in mean Cmax and AUC0-24 [1] | Cmax ([1]; 100 mg/kg/day oral gavage) [µg/mL] | Tmax ([1]; 100 mg/kg/day oral gavage) [h] | AUC(0-t) ([1]; 100 mg/kg/day oral gavage) [µg·h/mL] | Cmax ([1]; 300 mg/kg/day oral gavage) [µg/mL] | Tmax ([1]; 300 mg/kg/day oral gavage) [h] | AUC(0-t) ([1]; 300 mg/kg/day oral gavage) [µg·h/mL] | AUC0-24 (h*ng/mL) ([1]; 300 mg/kg/day oral gavage) | % Enzyme Activity (relative to DMSO controls) (NEK2) [%] | % Enzyme Activity (relative to DMSO controls) (GSK3b) [%] | Markers of fibrosis / UUO-induced renal fibrosis [2] | Renal T-lymphocyte infiltration (CD3 stain) [2] | Renal macrophage infiltration (F4/80 stain) [2] | Trichrome staining (kidney fibrosis) [2] | αSMA staining (kidney fibrosis) [2] | % Enzyme Activity (relative to DMSO controls) (BMX/ETK) [%] | % Enzyme Activity (relative to DMSO controls) (MELK) [%] | % Enzyme Activity (relative to DMSO controls) (TNIK) [%] | AUC0-24 (h*ng/mL) ([1]; 100 mg/kg/day oral gavage) |
| --- | --- | --- | --- | --- | --- | --- | --- | --- | --- | --- | --- | --- | --- | --- | --- | --- | --- | --- | --- |
| CC(C)(CCCCc1cccc(CCCCC(C)(C)C(=O)O)c1)C(=O)O [Compound I-32, 6-[3-(5-carboxy-5-methylhexyl)-phenyl]-2,2-dimethylhexanoic acid] | approximately dose proportional | 142 | 2 | 2030 | 406 | 4 | 7880 | 7,880,000 h*ng/mL | 87.7 | 72.67 | attenuated | no effect; also recorded: unaffected | significantly reduced; also recorded: similarly effective in decreasing | trend to reduction | trend to reduction | 52.97 | 110.73 | 99.68 | – |
| CC(C)(CCCCc1ccc(CCCCC(C)(C)C(=O)O)cc1)C(=O)O [Compound I-1, 6-[4-(5-carboxy-5-methylhexyl)-phenyl]-2,2-dimethylhexanoic acid] | less than dose proportional | 415 | 2 | 5460 | 787 | 1 | 7520 | – | 85.17 | 82.73 | attenuated | no effect; also recorded: unaffected | significantly reduced; also recorded: similarly effective in decreasing | decreased | decreased | 51.72 | 106.55 | 101.58 | 5,460,000 h*ng/mL |
